Measurements from US11905249B2, “Covalent inhibitors of equine encephalitis virus” (priority 2021, dated 2024).
Read-outs that look alike come from different tables or passages of the source.

Key:
[1] = system: VEEV TC83; assay: microbe, parasite or virus in culture; format: cell-based, Venezuelan equine encephalitis virus
[2] = system: Neuro-2a cells
[3] = system: VEEV TC83; assay: microbe, parasite or virus in culture; format: cell-based, Venezuelan equine encephalitis virus; remark: listed apart in the source
[4] = system: BE(2)-M17 cells
[5] = target: VEEV nsP2 protease (Venezuelan equine encephalitis virus, UniProt P27282); assay: biochemical; conditions: read-out: estimated percentage inhibition of VEEV nsP2
VEEV nsP2 protease, sequence (P27282 1003-1322 limits assumed): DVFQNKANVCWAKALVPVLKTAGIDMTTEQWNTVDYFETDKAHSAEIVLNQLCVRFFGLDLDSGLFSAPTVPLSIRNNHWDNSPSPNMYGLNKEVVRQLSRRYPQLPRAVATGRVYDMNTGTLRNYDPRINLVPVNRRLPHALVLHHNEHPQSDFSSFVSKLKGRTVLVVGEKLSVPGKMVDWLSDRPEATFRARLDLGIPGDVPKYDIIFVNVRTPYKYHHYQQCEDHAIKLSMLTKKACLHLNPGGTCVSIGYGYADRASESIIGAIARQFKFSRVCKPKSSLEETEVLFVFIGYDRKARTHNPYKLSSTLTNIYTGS

[6] = system: VEEV (IC-SH3); assay: microbe, parasite or virus in culture; format: cell-based; conditions: Venezuelan equine encephalitis virus, HeLa, read-out: EC50 (HeLa)
[7] = system: VEEV (IC-SH3); assay: microbe, parasite or virus in culture; format: cell-based; conditions: Venezuelan equine encephalitis virus, Vero, read-out: EC50 (Vero)
[8] = Venezuelan equine encephalitis virus, read-out: Human BE(2)-M17 (TC83) EC50 (μM)
[9] = Venezuelan equine encephalitis virus, N2a, in Mus musculus, read-out: Mouse Neuro-2a (TC83) EC50 (μM)

| Structure (SMILES) | EC50 [1, 8] [µM] | Mouse Neuro-2a (TC83) CC50 ([2]; mouse) [µM] | EC50 [3, 9] [µM] | Human BE(2)-M17 (TC83) CC50 ([4]; human) [µM] | also measured |
| --- | --- | --- | --- | --- | --- |
| COC(=O)/C=C/C(C)(C)NC(=O)c1cccc2c1NC(C)(C)C=C2C [Compound 26] | > 25 | >25.00 | > 25 | >25.00 | – |
| CC1=CC(C)(C)Nc2c(C(=O)N[C@H](/C=C/S(C)(=O)=O)Cc3ccccc3)cc(C)cc21 [Compound 37] | 31.7 ± 16.7 | >50.00 | > 50 | >50.00 | – |
| CC1=CC(C)(C)Nc2c(C(=O)N[C@@H](C)/C=C/S(C)(=O)=O)cccc21 [Compound 12] | – | – | – | – | inhibition at 0.9 µM [5]: ~59% |
| COc1ccc2[nH]cc(C(=O)N[C@H](/C=C/S(=O)(=O)c3ccccc3)Cc3ccccc3)c2c1 [Compound 40] | 23.9 ± 5.33 | >25.00 | > 25 | >25.00 | – |
| O=C(N[C@H](/C=C/S(=O)(=O)c1ccccc1)Cc1ccccc1)c1cccc2c1NCCC2 [Compound 43] | > 25 | >25.00 | > 25 | >25.00 | – |
| CS(=O)(=O)/C=C/CNC(=O)c1ccccc1Nc1cccc(Cl)c1Cl [Compound 33] | > 25 | 15.48 | > 25 | 5.86 | – |
| COC(=O)/C=C/CNC(=O)c1ccccc1Nc1ccccc1 [Compound 19] | > 25 | >25.00 | > 25 | >25.00 | – |
| CC1=CC(C)(C)Nc2c(C(=O)NC(C)(C)/C=C/S(C)(=O)=O)cccc21 [Compound 38] | > 25 | >25.00 | > 25 | >25.00 | – |
| COC(=O)/C=C/C(C)(C)NC(=O)c1cccc2c1NC(C)(C)C[C@H]2C [Compound 27] | > 25 | >25.00 | > 25 | >25.00 | – |
| CS(=O)(=O)/C=C/[C@H](Cc1ccccc1)NC(=O)c1cccc2cccnc12 [Compound 36] | > 25 | >25.00 | > 25 | >25.00 | – |
| Cc1ccc2cccc(C(=O)NC/C=C/S(C)(=O)=O)c2n1 [Compound 31] | > 25 | >25.00 | > 25 | >25.00 | – |
| C[C@@H]1CC(C)(C)Nc2c(C(=O)NC(C)(C)/C=C/S(C)(=O)=O)cccc21 [Compound 39] | > 25 | >25.00 | > 25 | >25.00 | – |
| COC(=O)/C=C/[C@H](Cc1ccccc1)NC(=O)c1cccc2c1NC(C)(C)C=C2C [Compound 29] | > 50 | >50.00 | > 50 | >50.00 | – |
| COC(=O)/C=C/[C@H](C)NC(=O)c1cccc2c1NC(C)(C)C[C@H]2C [Compound 25] | > 25 | >25.00 | > 25 | >25.00 | – |
| C[C@@H]1CC(C)(C)Nc2c(C(=O)N[C@H](/C=C/S(=O)(=O)c3ccccc3)Cc3ccccc3)cccc21 [Compound 42] | > 25 | >25.00 | > 25 | >25.00 | – |
| COC(=O)/C=C/CNC(=O)c1cccc2c1NC(C)(C)C=C2C [Compound 1] | – | – | – | – | EC50 [6]: 6.48 µM; EC50 [7]: 0.55 µM |

| Structure (SMILES) | EC50 [1, 8] [µM] | Mouse Neuro-2a (TC83) CC50 ([2]; mouse) [µM] | EC50 [3, 9] [µM] | Human BE(2)-M17 (TC83) CC50 ([4]; human) [µM] | also measured |
| --- | --- | --- | --- | --- | --- |
| Cc1ccc(Cl)c(Nc2ccccc2C(=O)NC/C=C/S(C)(=O)=O)c1Cl [Compound 35] | 18.2 ± 0.93 | >25.00 | > 25 | 14.50 | – |
| COC(=O)/C=C/CNC(=O)c1cccc2nccnc12 [Compound 22] | > 25 | >25.00 | > 25 | >25.00 | – |
| CS(=O)(=O)/C=C/CNC(=O)c1cccc2nccnc12 [Compound 34] | > 25 | >25.00 | > 25 | >25.00 | – |
| COC(=O)/C=C/[C@H](Cc1ccccc1)NC(=O)c1cc(C)cc2c1NC(C)(C)C=C2C [Compound 30] | > 50 | >50.00 | > 50 | >50.00 | – |
| C[C@@H]1CC(C)(C)Nc2c(C(=O)NC/C=C/S(C)(=O)=O)cccc21 [Compound 11] | – | – | – | – | inhibition at 0.9 µM [5]: ~39% |
| COC(=O)/C=C/CNC(=O)c1c[nH]c2ccc(C)cc12 [Compound 21] | > 25 | >25.00 | > 25 | >25.00 | – |
| COC(=O)/C=C/[C@H](Cc1ccccc1)NC(=O)c1c[nH]c2ccc(Cl)cc12 [Compound 28] | > 50 | >50.00 | > 50 | >50.00 | – |
| COC(=O)/C=C/[C@H](C)NC(=O)c1cccc2c1NC(C)(C)C=C2C [Compound 24] | > 25 | >25.00 | > 25 | >25.00 | – |
| CN1CCN(C)C(=Nc2ccc([N+](=O)[O-])cc2C(=O)Nc2ccccc2)C1 [ML336, reference compound] | – | – | – | – | EC50 ([1]; read-out: Human BE(2)-M17 (TC83) EC50): 0.01 µM; Mouse Neuro-2a (TC83) CC50 [2]: >2.5 µM; EC50 ([3]; read-out: Mouse Neuro-2a (TC83) EC50): 0.02 ± 0.01 µM; Human BE(2)-M17 (TC83) CC50 [4]: >2.50 µM |
| C[C@@H]1CC(C)(C)Nc2c(C(=O)N[C@@H](C)/C=C/S(C)(=O)=O)cccc21 [Compound 13] | – | – | – | – | inhibition at 0.9 µM [5]: ~71% |
| COC(=O)/C=C/CNC(=O)c1ccccc1Nc1cccc(Cl)c1Cl [Compound 20] | > 25 | 1.52 | > 25 | >25.00 | – |
| CC1=CC(C)(C)Nc2c(C(=O)N[C@H](/C=C/S(=O)(=O)c3ccccc3)Cc3ccccc3)cccc21 [Compound 41] | > 25 | >25.00 | > 25 | >25.00 | – |
| COC(=O)/C=C/CNC(=O)c1cccc2cccnc12 [Compound 17] | > 25 | >25.00 | > 25 | >25.00 | – |
| CS(=O)(=O)/C=C/CNC(=O)c1ccccc1Nc1ccccc1 [Compound 32] | > 25 | >25.00 | > 25 | 27.14 | – |
| COC(=O)/C=C/CNC(=O)c1ccccc1Nc1c(Cl)ccc(C)c1Cl [Compound 23] | > 25 | 23.53 | > 25 | >25.00 | – |
| COC(=O)/C=C/CNC(=O)c1cccc2ccc(C)nc12 [Compound 18] | > 25 | >25.00 | > 25 | >25.00 | – |
